The values below come from US11548894B2, “Benzamide or benzamine compounds useful as anticancer agents for the treatment of human cancers” (The Board of Regents of the University of Texas System, priority 2015, dated 2023).

One may read the EC50 as the midpoint of the concentration-response curve.

One data set concerns Mut6 cells (TD-NSC). As to the kind of experiment: luminescence-based Celltiter-Glo cell viability assay (ATP levels) on Mut6 tumor derived neuronal stem cells. The settings on record: Mus musculus, 96 h, ATP activity as measure of viability, 96 hours; read-out: EC50 (TD-NSC). The arrangement: species or system mouse. The gist of the method:
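Primary tumor-derived neural stem cells from pooled Mut6 (p53/Pten/Nf1 conditional knockout) GBM tumors, serum-free with defined growth factors. Compound exposure 96 h at 37° C., 5% oxygen; viability by CellTiter-Glo ATP luminescence with cell-free background wells, giving IC50 curves.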
On the technique in general: Cellular ATP, detected with luciferase, serves as a proxy for viable cell number.

Data set [1] can be described thus: S9 Metabolism Assay (half-life by substrate depletion). The format is in vitro ADME. The settings on record: female, ICR/CD-1, S9 fractions, pH 7.5; mouse S9, 2 μM compound; time plotted in min; read-out: S9 T1/2. Here is the method: Female ICR/CD-1 mouse S9 fractions were purchased from Celsis/In Vitro Technologies (Baltimore, Md.). 25 μl (0.5 mg) of S9 protein was added to a 15 ml glass screw cap tube. 350 μl of a 50 mM Tris, pH 7.5 solution, containing the compound of interest was added on ice. The final concentration of compound after addition of all reagents was 2 μM. 125 μl of an NADPH-regenerating system (1.7 mg/ml NADP, 7.8 mg/ml glucose-6-phosphate, 6 U/ml glucose-6-phosphate dehydrogenase in 2% w/v NaHCO3/10 mm MgCl2) was added for analysis of Phase I metabolism. Uridine 5′-diphospho-α-D-glucuronic acid (UDPGA 1.9 mg/ml) and 3′-phosphoadenosine-5′-phosphosulphate (PAPS, 100 mg/ml) were additionally added for phase II reactions. The tube was then placed in a 37° C. shaking water bath. At varying time points after addition of phase I and phase II cofactors, the reaction was stopped by the addition of 0.5 ml of methanol containing 0.2% formic acid and 200 ng/ml internal standard (either n-benzylbenzamide or tolbutamide, Sigma, St. Louis, Mo.). The samples were incubated 10′ at RT and then spun at 16,100×g for 5 min in a microcentrifuge. The supernatant was analyzed by LC-MS/MS. Metabolism of 7-ethoxycoumarin was used to monitor […] performance. Analytical methods were developed for each compound using an Applied Biosystems (Foster City, Calif.) 4000-QTrap, a combination triple quadrupole/ion trap instrument. The parent ion and the two most prominent daughter ions were followed to confirm compound identity, although only the most abundant daughter was used for quantitation. A Shimadzu (Columbia, Md.) Prominence LC with Agilent C18 XDB column (5 micron packing; 50×4.6 mm) was used for chromatography.
The method described in McNaney, et al (McNaney, C A, D M Drexler, S Hnatyshyn, T A Zvyaga, J O Knipe, J V Belcastro, and M Sanders. 2008. An automated liquid chromatography-mass spectrometry process to determine metabolic stability half-life and intrinsic clearance of drug candidates by substrate depletion. Assay and Drug Development Technologies 6:121-129. Determination of Plasma and Brain Pharmacokinetics) was used with modification for determination of metabolic stability half-life by substrate depletion. A “% remaining” value was used to assess metabolic stability of a compound over time. The LC/MS/MS peak area of the incubated sample at each time point was divided by the LC/MS/MS peak area of the time 0 (TO) sample and multiplied by 100. The natural Log (LN) of the % remaining of compound was then plotted versus time (in min) and a linear regression curve plotted going through y-intercept at LN(100).

In the case of `CCN1CCCC1CNC(=O)c1ccc(Sc2cccc(F)c2)c([N+](=O)[O-])c1` (stereo not shown) [DS-1-069, N-((1-ethylpyrrolidin-2-yl)methyl)-4-((3-fluorophenyl)thio)-3-nitrobenzamide], the EC50 in the data set with Mut6 cells (TD-NSC) was determined as 88 nM. For the same compound, the half-life at 2 μM in data set [1] amounted to 35.2 min.

For the compound `CCN1CCCC1CNCc1ccc(Sc2ccc(F)cc2)c([N+](=O)[O-])c1` (stereo not shown) [DS-1-079, 1-(1-ethylpyrrolidin-2-yl)-N-(4-((4-fluorophenyl)thio)-3-nitrobenzyl)methanamine], in the data set with Mut6 cells (TD-NSC), the EC50 amounted to 36 nM. The half-life at 2 μM in data set [1] stood at 21.4 min.

For the compound `O=C(NC[C@@H]1CCCN1)c1ccc(Sc2ccc(F)cc2)c([N+](=O)[O-])c1` [DS-1-085, (S)-4-((4-fluorophenyl)thio)-3-nitro-N-(pyrrolidin-2-ylmethyl)benzamide], the EC50 in the data set on Mut6 cells (TD-NSC) amounted to 132 nM. Moreover, in data set [1], the half-life at 2 μM is 240 min.

Turning to `CCN1CCCC1CNC(=O)c1ccc(Sc2ccc(F)cc2F)c([N+](=O)[O-])c1` (stereo not shown) [DS-1-125, 4-((2,4-difluorophenyl)thio)-N-((1-ethylpyrrolidin-2-yl)methyl)-3-nitrobenzamide], the EC50 in the data set on Mut6 cells (TD-NSC) turned out to be 51 nM. Also, the half-life at 2 μM in data set [1] stood at 87.7 min.

Consider `CCN1CCCC1CNC(=O)c1ccc(Sc2ccncc2)c([N+](=O)[O-])c1` (stereo not shown) [DS-1-129, N-((1-ethylpyrrolidin-2-yl)methyl)-3-nitro-4-(pyridin-4-ylthio)benzamide], for which, in the data set with Mut6 cells (TD-NSC), the EC50 was found to be 150 nM. Besides, the half-life at 2 μM in data set [1] is 92.4 min.

For the compound `CCN1CCCC1CNC(=O)c1ccc(SCc2ccc(F)cc2)c([N+](=O)[O-])c1` (stereo not shown) [DS-1-131, N-((1-ethylpyrrolidin-2-yl)methyl)-4-((4-fluorobenzyl)thio)-3-nitrobenzamide], in the data set on Mut6 cells (TD-NSC), the EC50 was 35 nM. In addition, in data set [1], the half-life at 2 μM is 96.3 min.

As for `CCN1CCCC1CNC(=O)c1ccc(Sc2ccc(OC)cc2)c([N+](=O)[O-])c1` (stereo not shown) [DS-1-133, N-((1-ethylpyrrolidin-2-yl)methyl)-4-((4-methoxyphenyl)thio)-3-nitrobenzamide], the EC50 with Mut6 cells (TD-NSC) was 62 nM. Moreover, the half-life at 2 μM in data set [1] came to 48.1 min.

As to `CCN1CCCC1CNC(=O)c1ccc(Sc2ccc(Cl)cc2)c([N+](=O)[O-])c1` (stereo not shown) [DS-1-163, 4-((4-chlorophenyl)thio)-N-((1-ethylpyrrolidin-2-yl)methyl)-3-nitrobenzamide], the EC50 with Mut6 cells (TD-NSC) was 51 nM. Moreover, the half-life at 2 μM in data set [1] was found to be 88.8 min.

In the case of `CCN1CCCC1CNC(=O)c1ccc(Sc2ccc(F)cc2)c(C#N)c1` (stereo not shown) [DS-1-227, 3-cyano-N-((1-ethylpyrrolidin-2-yl)methyl)-4-((4-fluorophenyl)thio)benzamide], in the data set on Mut6 cells (TD-NSC), the EC50 turned out to be 53 nM. In addition, in data set [1], the half-life at 2 μM amounted to 65 min.

Turning to `CC1C2CCCN2CCN1C(=O)c1ccc(Sc2ccc(F)cc2)c([N+](=O)[O-])c1` (stereo not shown) [DS-1-279, (4-((4-fluorophenyl)thio)-3-nitrophenyl)(1-methylhexahydropyrrolo[1,2-a]pyrazin-2(1H)-yl)methanone], in the data set on Mut6 cells (TD-NSC), the EC50 was 58 nM. Besides, the half-life at 2 μM in data set [1] amounted to 26.7 min.

Take `O=C(NCCCN1CCOCC1)c1ccc(Sc2ccc(F)cc2)c([N+](=O)[O-])c1` [DS-1-283, 4-((4-fluorophenyl)thio)-N-(3-morpholinopropyl)-3-nitrobenzamide]: the EC50 in the data set on Mut6 cells (TD-NSC) was found to be 42 nM. The half-life at 2 μM in data set [1] came out at 93.6 min.

Take `CCN1CCCC1CNC(=O)c1ccc(Sc2ccc(F)cc2)c(S(C)(=O)=O)c1` (stereo not shown) [DS-1-301, N-((1-ethylpyrrolidin-2-yl)methyl)-4-((4-fluorophenyl)thio)-3-(methylsulfonyl)benzamide]: the concentration for a half-maximal effect (EC50) with Mut6 cells (TD-NSC) was found to be 236 nM. Moreover, the half-life at 2 μM in data set [1] was over 240 min.

Consider `N#Cc1cc(C(=O)NCCN2CCOCC2)ccc1Oc1ccc(F)cc1` [DS-2-045, 3-cyano-4-(4-fluorophenoxy)-N-(2-morpholinoethyl)benzamide], for which the EC50 in the data set on Mut6 cells (TD-NSC) was 74 nM. Moreover, in data set [1], the half-life at 2 μM came to 99 min.

Take `CCN1CCCC1CNC(=O)c1ccc(Sc2ccc(F)cc2)c(F)c1` (stereo not shown) [DS-2-053, N-((1-ethylpyrrolidin-2-yl)methyl)-3-fluoro-4-((4-fluorophenyl)thio)benzamide]: the EC50 with Mut6 cells (TD-NSC) amounted to 87 nM. In data set [1], the half-life at 2 μM was 41 min.
